Laboratory results reported in the Kinase Knowledgebase extract (Sharma et al. 2016).

Target: ROCK2 (human) (UniProt O75116)
Experiment: Assessment of ROCK2 Kinase Activity

Sequence of ROCK2 (human) (O75116 whole entry, looked up): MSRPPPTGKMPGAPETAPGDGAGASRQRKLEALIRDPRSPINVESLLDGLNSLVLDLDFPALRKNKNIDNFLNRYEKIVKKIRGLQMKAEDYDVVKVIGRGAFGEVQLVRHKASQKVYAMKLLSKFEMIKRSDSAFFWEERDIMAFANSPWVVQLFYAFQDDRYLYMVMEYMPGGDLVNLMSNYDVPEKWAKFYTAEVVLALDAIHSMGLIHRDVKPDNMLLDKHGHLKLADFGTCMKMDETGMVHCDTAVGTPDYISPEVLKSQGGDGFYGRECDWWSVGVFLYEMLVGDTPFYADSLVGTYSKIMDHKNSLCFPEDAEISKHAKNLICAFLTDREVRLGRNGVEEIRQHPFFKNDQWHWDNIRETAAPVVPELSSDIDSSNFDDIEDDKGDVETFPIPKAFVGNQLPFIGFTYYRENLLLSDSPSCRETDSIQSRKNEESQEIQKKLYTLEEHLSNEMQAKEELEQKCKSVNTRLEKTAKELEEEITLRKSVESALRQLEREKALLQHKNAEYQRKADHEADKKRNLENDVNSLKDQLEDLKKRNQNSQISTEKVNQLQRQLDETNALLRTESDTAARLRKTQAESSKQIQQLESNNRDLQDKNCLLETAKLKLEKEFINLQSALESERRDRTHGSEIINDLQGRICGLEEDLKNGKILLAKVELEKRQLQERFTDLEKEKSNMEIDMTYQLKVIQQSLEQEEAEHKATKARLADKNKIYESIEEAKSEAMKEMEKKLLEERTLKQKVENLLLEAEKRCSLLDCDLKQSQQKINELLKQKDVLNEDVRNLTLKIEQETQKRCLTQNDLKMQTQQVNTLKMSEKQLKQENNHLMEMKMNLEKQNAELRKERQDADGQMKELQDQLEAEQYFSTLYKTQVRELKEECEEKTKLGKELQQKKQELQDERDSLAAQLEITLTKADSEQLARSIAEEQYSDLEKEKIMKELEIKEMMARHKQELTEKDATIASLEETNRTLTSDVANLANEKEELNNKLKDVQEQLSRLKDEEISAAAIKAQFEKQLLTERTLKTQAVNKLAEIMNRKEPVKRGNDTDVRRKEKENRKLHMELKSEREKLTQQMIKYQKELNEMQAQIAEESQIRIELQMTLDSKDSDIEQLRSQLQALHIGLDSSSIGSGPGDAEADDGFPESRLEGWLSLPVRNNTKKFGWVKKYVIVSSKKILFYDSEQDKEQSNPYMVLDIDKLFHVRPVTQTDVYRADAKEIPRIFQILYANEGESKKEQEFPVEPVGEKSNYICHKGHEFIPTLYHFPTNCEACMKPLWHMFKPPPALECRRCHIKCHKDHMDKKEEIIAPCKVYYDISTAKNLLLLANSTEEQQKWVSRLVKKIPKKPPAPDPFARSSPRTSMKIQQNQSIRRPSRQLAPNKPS

`COc1cccc(CNC(=O)c2cc3ccc(-c4c[nH]nc4C)nc3[nH]2)c1` and `COc1cccc(CNC(=O)c2cc3ccc(-c4cn[nH]c4)nc3[nH]2)c1` cannot be ordered by IC50: < 100 nM for the first, < 100 nM for the second.

`COc1cccc(CN(CC2CC2)C(=O)c2n[nH]c3cc(-c4cn[nH]c4)ccc23)c1` and `COc1cccc(CN(C)C(=O)c2n[nH]c3cc(-c4cn[nH]c4)ccc23)c1` cannot be ordered by IC50: < 100 nM for the first, < 100 nM for the second.

`COc1cccc(CN(CCN(C)C)C(=O)c2nn(CC3CC3)c3cc(-c4cn[nH]c4)ccc23)c1` and `COc1cccc(CN(CCN(C)C)C(=O)c2n[nH]c3cc(-c4cn[nH]c4)ccc23)c1` cannot be ordered by IC50: < 100 nM for the first, < 100 nM for the second.

`COc1cccc(CNC(=O)c2nn(CCN(C)C)c3cc(-c4cn[nH]c4)ccc23)c1` and `CCCn1nc(C(=O)NCc2cccc(OC)c2)c2ccc(-c3cn[nH]c3)cc21` cannot be ordered by IC50: < 100 nM for the first, < 100 nM for the second.

`COc1cccc(CNC(=O)c2nn(CCN(C)C)c3cc(-c4ccncc4)ccc23)c1` and `COc1cccc(CNC(=O)c2nn(C)c3cc(-c4cn[nH]c4)ccc23)c1` cannot be ordered by IC50: < 100 nM for the first, < 100 nM for the second.

First: COc1cccc(CNC(=O)c2nn(CC3CC3)c3cc(-c4ccnc(N)n4)ccc23)c1
Second: COc1cccc(CNC(=O)c2c3ccc(-c4ccnc(N)n4)cc3nn2CC2CC2)c1
The IC50 of the first is lower: < 100 nM for the first, 100 to 1000 nM for the second.

`COc1ccccc1CNC(=O)c1cn(CCCO)c2cc(-c3cn[nH]c3)ccc12` and `COc1cccc(CN(C)C(=O)c2cn(CCCO)c3cc(-c4cn[nH]c4)ccc23)c1` cannot be ordered by IC50: < 100 nM for the first, < 100 nM for the second.

Compared with `O=C(NCC1CCCCC1)c1c[nH]c2cc(-c3cn[nH]c3)ccc12`, `COc1ccc(CNC(=O)c2c[nH]c3cc(-c4cn[nH]c4)ccc23)cc1` is higher in IC50: < 100 nM for the first, 100 to 1000 nM for the second.

`COc1cccc(CNC(=O)c2cc3ccc(-c4cn[nH]c4)nc3n2C)c1` and `COc1cccc(CNC(=O)c2cc3ccc(-c4cn[nH]c4)nc3n2CCCO)c1` cannot be ordered by IC50: < 100 nM for the first, < 100 nM for the second.

First: COc1cccc(CN(CCCN(C)C)C(=O)c2cn(C)c3cc(-c4cn[nH]c4)ccc23)c1
Second: COc1cccc(CCNC(=O)c2cn(CCN(C)C)c3cc(-c4cn[nH]c4)ccc23)c1
The IC50 of the first is lower: < 100 nM for the first, 100 to 1000 nM for the second. The first is the more potent here.

`COc1cccc(CNC(=O)c2cc3ccc(-c4cn[nH]c4)cc3n2CCCO)c1` and `COc1cccc(CNC(=O)c2cn(C)c3cc(-c4cn[nH]c4)ccc23)c1` cannot be ordered by IC50: < 100 nM for the first, < 100 nM for the second.

`COc1cccc(CN(C)C(=O)c2cc3ccc(-c4cn[nH]c4)nc3[nH]2)c1` and `COc1cccc(CN(C(=O)c2cc3ccc(-c4cn[nH]c4)nc3[nH]2)C2CC2)c1` cannot be ordered by IC50: < 100 nM for the first, < 100 nM for the second.

`COc1cccc(CNC(=O)c2[nH]c3cc(-c4cn[nH]c4)ccc3c2CN2CCCC2c2ccccc2)c1` (configuration not stated) and `COc1cccc(CNC(=O)c2[nH]c3cc(-c4cn[nH]c4)ccc3c2CN(C)Cc2ccccc2)c1` fall in the same range of IC50: 100 to 1000 nM for the first, 100 to 1000 nM for the second.

`COc1cccc(CNC(=O)c2cn3cc(-c4cn[nH]c4)ccc3n2)c1` and `COc1cccc(CNC(=O)c2cn3cc(-c4ccnc(N)n4)ccc3n2)c1` fall in the same range of IC50: 100 to 1000 nM for the first, 100 to 1000 nM for the second.

`COc1cccc([C@@H](C)NC(=O)c2cn(CCN3CCCC3)c3cc(-c4cn[nH]c4)ccc23)c1` and `COc1cccc(CNC(=O)c2cn(CCN3CCCC3)c3cc(-c4cn[nH]c4)ccc23)c1` cannot be ordered by IC50: < 100 nM for the first, < 100 nM for the second.

First: COc1cccc(CNC(=O)c2c3ccc(-c4cn[nH]c4)cc3nn2CC2CC2)c1
Second: COc1cccc(CNC(=O)c2n[nH]c3cc(-c4cn[nH]c4)ccc23)c1
The IC50 of the first is higher: 100 to 1000 nM for the first, < 100 nM for the second.

`O=C(NCc1ccccc1)c1cnc2cc(-c3cn[nH]c3)ccn12` and `COc1cccc(CNC(=O)c2cnc3cc(-c4cn[nH]c4)ccn23)c1` cannot be ordered by IC50: < 100 nM for the first, < 100 nM for the second.

Compared with `O=C(NCCc1cccnc1)c1c[nH]c2cc(-c3cn[nH]c3)ccc12`, `COc1cccc(CNC(=O)c2c[nH]c3cc(-c4cn[nH]c4)ccc23)c1` is lower in IC50: 100 to 1000 nM for the first, < 100 nM for the second. The second is the more potent here.

`COc1cccc(CN(CCN2CCCC2)C(=O)c2cc3ccc(-c4cn[nH]c4)nc3[nH]2)c1` and `COc1cccc(CN(CCN2CCCC2)C(=O)c2cc3ccc(-c4cn[nH]c4)cc3[nH]2)c1` cannot be ordered by IC50: < 100 nM for the first, < 100 nM for the second.

`COc1cccc(CN(CCCN2CCN(C)CC2)C(=O)c2cc3ccc(-c4cn[nH]c4)nc3[nH]2)c1` and `COc1cccc(CN(CCN(C)C)C(=O)c2cc3ccc(-c4cn[nH]c4)nc3[nH]2)c1` cannot be ordered by IC50: < 100 nM for the first, < 100 nM for the second.

`COc1cccc(CNC(=O)c2cc3ccc(-c4cn[nH]c4)nc3n2CCN2CCCC2)c1` and `COc1cccc(CNC(=O)c2cc3ccc(-c4cn[nH]c4)cc3[nH]2)c1` cannot be ordered by IC50: < 100 nM for the first, < 100 nM for the second.

First: COc1ccc2c(c1)CC(c1cc(=O)n3cc(-c4ccncc4)ccc3n1)CO2 (configuration not stated)
Second: COc1ccc2c(c1)CC(c1cc(=O)n3cc(-c4cn[nH]c4)ccc3n1)CO2 (configuration not stated)
The IC50 of the first is higher: 100 to 1000 nM for the first, < 100 nM for the second. The second is the more potent here.

`Cc1ccccc1CNC(=O)c1n[nH]c2cc(-c3cn[nH]c3)ccc12` and `COc1ccccc1CNC(=O)c1n[nH]c2cc(-c3cn[nH]c3)ccc12` cannot be ordered by IC50: < 100 nM for the first, < 100 nM for the second.

`COc1cccc(CN(CCN(C)C)C(=O)c2cnc3cc(-c4cn[nH]c4)ccn23)c1` and `COc1cccc(CN(CCN(C)C)C(=O)c2cn3cc(-c4cn[nH]c4)ccc3n2)c1` cannot be ordered by IC50: < 100 nM for the first, < 100 nM for the second.

`COc1cccc(CCNC(=O)c2n[nH]c3cc(-c4cn[nH]c4)ccc23)c1` and `COc1cccc(CN(C)C(=O)c2cc3ccc(-c4cn[nH]c4)cc3[nH]2)c1` cannot be ordered by IC50: < 100 nM for the first, < 100 nM for the second.

Compared with `COc1cccc(CNC(=O)c2[nH]c3cc(-c4cn[nH]c4)ccc3c2CN2CCN(C)CC2)c1`, `COc1cccc(CNC(=O)c2cn(-c3cccc(C(F)(F)F)c3)c3cc(-c4cn[nH]c4)ccc23)c1` is higher in IC50: < 100 nM for the first, 100 to 1000 nM for the second. The first is the more potent here.
